Measured values as given in PubChem BioAssay (NCI).
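Step 1: Grow cells in 96-well plates. Step 2: Expose to compound for 48 hours at 5 concentrations. Step 3: Interpolate endpoints linearly; if unreached, use highest concentration. TGI: total growth inhibition.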

Columns and labels:
Test in all cases: inhibition of tumour cell growth, NCI panel, 48 h
[1] = test system: 786-0 renal
[2] = test system: A498 renal
[3] = test system: A549 NSCLC
[4] = test system: ACHN renal
[5] = test system: CAKI-1 renal
[6] = test system: CCRF-CEM leukemia
[7] = test system: COLO 205 colon
[8] = test system: DLD-1 colon
[9] = test system: DMS 114 small cell lung
[10] = test system: DMS 273 small cell lung
[11] = test system: EKVX NSCLC
[12] = test system: HCC-2998 colon
[13] = test system: HCT-116 colon
[14] = test system: HCT-15 colon
[15] = test system: HL-60(TB) leukemia
[16] = test system: HOP-18 NSCLC
[17] = test system: HOP-62 NSCLC
[18] = test system: HOP-92 NSCLC
[19] = test system: HT29 colon
[20] = test system: IGROV1 ovarian
[21] = test system: K-562 leukemia
[22] = test system: KM12 colon
[23] = test system: KM20L2 colon
[24] = test system: LOX IMVI melanoma
[25] = test system: LXFL 529 NSCLC
[26] = test system: M14 melanoma
[27] = test system: M19-MEL melanoma
[28] = test system: MALME-3M melanoma
[29] = test system: MOLT-4 leukemia
[30] = test system: NCI-H226 lung
[31] = test system: NCI-H23 lung
[32] = test system: NCI-H460 lung
[33] = test system: NCI-H522 lung
[34] = test system: OVCAR-4 ovarian
[35] = test system: OVCAR-5 ovarian
[36] = test system: OVCAR-8 ovarian
[37] = test system: RPMI-8226 leukemia
[38] = test system: RXF 393 renal
[39] = test system: SF-268 CNS
[40] = test system: SF-295 CNS
[41] = test system: SF-539 CNS
[42] = test system: SK-MEL-2 melanoma
[43] = test system: SK-MEL-28 melanoma
[44] = test system: SK-MEL-5 melanoma
[45] = test system: SK-OV-3 ovarian
[46] = test system: SN12C renal
[47] = test system: SNB-19 CNS
[48] = test system: SNB-75 CNS
[49] = test system: SNB-78 CNS
[50] = test system: SW-620 colon
[51] = test system: TK-10 renal
[52] = test system: U251 CNS
[53] = test system: UACC-257 melanoma
[54] = test system: UACC-62 melanoma
[55] = test system: UO-31 renal

Structure (SMILES): CC(C)N(C(C)C)P(OCCC#N)OC1CC(n2cnc3c(=O)[nH]cnc32)OC1COC(=O)NCCCCCCNC(=O)OC(C)(C)c1ccc(-c2ccccc2)cc1 (stereo not given)
- TGI [1]: 54.7 µM
- TGI [2]: > 100 µM
- TGI [3]: > 100 µM
- TGI [4]: > 100 µM
- TGI [5]: > 100 µM
- TGI [6]: 43.8 µM
- TGI [7]: 31.2 µM
- TGI [8]: > 100 µM
- TGI [9]: 41.6 µM
- TGI [10]: 32.1 µM
- TGI [11]: > 100 µM
- TGI [12]: 65.1 µM
- TGI [13]: > 100 µM
- TGI [14]: > 100 µM
- TGI [15]: 36.4 µM
- TGI [16]: > 100 µM
- TGI [17]: 44.2 µM
- TGI [18]: 75.7 µM
- TGI [19]: > 100 µM
- TGI [20]: 38.4 µM
- TGI [21]: 37.5 µM
- TGI [22]: 35.5 µM
- TGI [23]: > 100 µM
- TGI [24]: 32.7 µM
- TGI [25]: 32.5 µM
- TGI [26]: 34.6 µM
- TGI [27]: 42.2 µM
- TGI [28]: 89.4 µM
- TGI [29]: > 100 µM
- TGI [30]: 55.2 µM
- TGI [31]: 50.5 µM
- TGI [32]: 65 µM
- TGI [33]: 32.6 µM
- TGI [34]: 38.2 µM
- TGI [35]: > 100 µM
- TGI [36]: 92.4 µM
- TGI [37]: 76.1 µM
- TGI [38]: 74.3 µM
- TGI [39]: 57.5 µM
- TGI [40]: > 100 µM
- TGI [41]: 44.3 µM
- TGI [42]: > 100 µM
- TGI [43]: 57 µM
- TGI [44]: 40.9 µM
- TGI [45]: > 100 µM
- TGI [46]: 54 µM
- TGI [47]: 57.8 µM
- TGI [48]: 53.7 µM
- TGI [49]: > 100 µM
- TGI [50]: > 100 µM
- TGI [51]: > 100 µM
- TGI [52]: 43 µM
- TGI [53]: 30.3 µM
- TGI [54]: 35.3 µM
- TGI [55]: 31.3 µM
